The text below walks through data of patent US5807981A (FibroGen Inc., priority 1995, dated 1998).

In assay [1] the test system is C-proteinase. Conditions: cited from earlier work; for inhibition of C-proteinase activity (in words) / inhibitory at low concentrations / concentrations at which inhibitory: background, prior art.
The target in assay [2] is T1, C-proteinase (Homo sapiens, UniProt P13497).
T1 sequence (P13497 121-986): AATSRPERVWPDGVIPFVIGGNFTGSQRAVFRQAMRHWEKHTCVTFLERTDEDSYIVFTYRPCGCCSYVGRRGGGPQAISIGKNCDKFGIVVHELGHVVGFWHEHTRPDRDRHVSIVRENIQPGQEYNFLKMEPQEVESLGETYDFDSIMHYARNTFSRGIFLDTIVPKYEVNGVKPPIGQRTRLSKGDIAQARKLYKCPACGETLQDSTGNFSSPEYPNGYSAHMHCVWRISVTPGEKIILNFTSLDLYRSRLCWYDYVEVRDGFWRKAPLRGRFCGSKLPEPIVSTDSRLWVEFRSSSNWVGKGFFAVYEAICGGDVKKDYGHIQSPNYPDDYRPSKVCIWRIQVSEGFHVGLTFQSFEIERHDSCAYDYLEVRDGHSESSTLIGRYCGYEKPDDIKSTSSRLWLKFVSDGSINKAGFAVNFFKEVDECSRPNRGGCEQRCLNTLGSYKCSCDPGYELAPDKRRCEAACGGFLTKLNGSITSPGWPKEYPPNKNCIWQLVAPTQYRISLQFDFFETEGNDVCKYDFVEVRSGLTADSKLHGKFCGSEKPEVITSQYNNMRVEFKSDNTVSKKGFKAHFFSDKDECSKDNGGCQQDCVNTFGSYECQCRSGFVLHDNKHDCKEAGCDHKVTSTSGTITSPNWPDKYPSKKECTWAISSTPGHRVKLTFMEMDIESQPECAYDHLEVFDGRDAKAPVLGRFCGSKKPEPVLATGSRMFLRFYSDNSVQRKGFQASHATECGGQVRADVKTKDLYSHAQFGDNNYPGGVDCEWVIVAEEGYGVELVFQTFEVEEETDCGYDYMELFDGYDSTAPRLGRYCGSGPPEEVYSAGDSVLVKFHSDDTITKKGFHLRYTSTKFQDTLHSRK
The assay can be described thus: Cleavage of synthetic procollagen cleavage-site peptides by active C-proteinase. It counts as biochemical. Particulars: for Cleavability: Table 1, cleavability of peptides resembling the C-proteinase cleavage site of procollagen; for cleavability by C-proteinase: truncated and extended peptides compared with original peptide SEQ ID NO:6. An excerpt:
A variety of short peptides comprising five (5) to twelve (12) amino acids was synthesized and tested for cleavage by active C-proteinase.
First, four peptides, each comprising eight (8) amino acids corresponding to the cleavage region of several procollagens were synthesized. See, TABLE 1, SEQ ID NO:3, SEQ ID NO:4, SEQ ID NO:5, and SEQ ID NO:6. All four peptides were examined for cleavability by C-proteinase. […] Indeed, one would expect that recognition of the cleavage site depends on structural requirements which cannot be resembled by only eight (8) amino acids.
Second, a series of peptides was prepared based on the sequence of original peptide SEQ ID NO:6. Specifically, peptides were designed resembling the core of the peptide comprising SEQ ID NO:6, but with truncations of one, two and three amino acids from either side of the cleavage site. A further peptide was synthesized resembling two additional amino acids at both the N-terminus and C-terminus of the original peptide comprising SEQ ID NO:6.
Removing two or more amino acids from either end of the original SEQ ID NO:6 sequence, however, yielded a non-cleavable peptide (SEQ ID NOS:9, 10, 12, 13).

Read-outs that look alike come from different tables or passages of the source. Starred links: 1 amine or outer side, 2 acyl side, 3 side chain; linkers in the order of their positions; H or OH if unused. Non-standard residues stand in square brackets, D forms with d. Residues, ends and D or L forms follow the SMILES beside them. *: point of attachment. Sta = CC(C)C[C@H](N)[C@@H](O)CC(=O)O; Isovaleryl = CC(C)CC(=O)*; CO = O=C([*:1])[*:2]

In the case of Tris-HCl [Tris-HCl buffer], the “inhibition of C-proteinase activity by buffer” value in assay [1] (concentration of 0.2-0.5M) is recorded as “markedly inhibited activity”.

As for `CC(=O)N[C@@H](Cc1ccc(O)cc1)C(=O)N[C@@H](Cc1ccc(O)cc1)C(=O)N[C@@H](CCCNC(=N)N)C(=O)N[C@@H](C)C(=O)N[C@@H](CC(=O)O)C(=O)N[C@@H](CC(=O)O)C(=O)N[C@@H](C)C(=O)N[C@@H](CC(N)=O)C(N)=O` [SEQ ID NO:3, Ac-YYRA-DDAN-NH2] (Ac-YYRADDAN-NH2), in assay [2], the Cleavability result was “slight” and the “cleavability by C-proteinase” value is given as “cleaved by C-proteinase”.

On to `CC(=O)N1CCC[C@H]1C(=O)N[C@@H](Cc1ccc(O)cc1)C(=O)N[C@@H](Cc1ccc(O)cc1)C(=O)NCC(=O)N[C@@H](CC(=O)O)C(N)=O` [SEQ ID NO:10, Ac-PYYG-D-NH2] (Ac-PYYGD-NH2), for which, in assay [2], the Cleavability result is “none” and the “cleavability by C-proteinase” value was “non-cleavable”.

On to `N=C(N)NCCC[C@H](N)C(=O)O` [arginine], for which, in assay [1], the “inhibition of C-proteinase activity (in words)” value (“inhibition … (in words)” for short) is listed as “inhibited”.

As for `CCCCCCCCCCCCOS(=O)(=O)[O-].[Na+]` [SDS], the “inhibitory at low concentrations” value in assay [1] is listed as “inhibitory at low concentrations”.

For `NCCCC[C@H](N)C(=O)O` [lysine], the “inhibition … (in words)” value in assay [1] is “inhibited”.

Turning to `CC(C)C[C@H](NC(=O)N[C@H](C(=O)N[C@@H](CCC(N)=O)C(=O)N[C@@H](C)C=O)[C@@H]1CCNC(=N)N1)C(=O)O` [elastinal], the “inhibition … (in words)” value in assay [1] was “weak or no effect”.

On to `CC(C)C[C@H](NC(=O)[C@@H](NC(=O)N[C@@H](Cc1ccccc1)C(=O)O)[C@@H]1CCN=C(N)N1)C(=O)N[C@H](C=O)Cc1ccccc1` [chymostatin], for which the “inhibition … (in words)” value in assay [1] is listed as “relatively strong inhibitors”.

Take `CC(=O)N1CCC[C@H]1C(=O)N[C@@H](Cc1ccc(O)cc1)C(=O)N[C@@H](Cc1ccc(O)cc1)C(=O)NCC(=O)N[C@@H](CC(=O)O)C(=O)N[C@@H](CCC(=O)O)C(N)=O` [SEQ ID NO:9, Ac-PYYG-DE-NH2] (Ac-PYYGDE-NH2): in assay [2], the Cleavability result is reported as “none” and the “cleavability by C-proteinase” value is “non-cleavable”.

As for α2 -Macroglobulin, in assay [1], the “inhibition … (in words)” value was “at least partially inhibit”.

Take `O[C@H](CS)[C@H](O)CS` (racemic) [Dithiothreitol]: the “inhibitory at low concentrations” value in assay [1] is recorded as “inhibitory at low concentrations”.

In the case of `CC(C)C[C@H](NP(=O)(O)O[C@@H]1O[C@@H](C)[C@H](O)[C@@H](O)[C@H]1O)C(=O)N[C@@H](Cc1c[nH]c2ccccc12)C(=O)O` [phosphoramidon], the “inhibition … (in words)” value in assay [1] is reported as “weak or no effect”.

In the case of `N.N.O=S(=O)(O)O` [ammonium sulfate], in assay [1], the “concentrations at which inhibitory” value is 1 to 10 mM.

`CSCC[C@H](NC(=O)[C@@H]1CCCN1C(=O)[C@H](CCC(=O)O)NC(=O)[C@H](CC(=O)O)NC(=O)CNC(C)=O)C(N)=O` [SEQ ID NO:13, Ac-G-DEPM-NH2] (Ac-GDEPM-NH2): in assay [2], the Cleavability result is “none” and the “cleavability by C-proteinase” value was “non-cleavable”.

As for `CSCC[C@H](NC(=O)[C@H](Cc1ccc(O)cc1)NC(C)=O)C(=O)N[C@@H](CCCNC(=N)N)C(=O)N[C@@H](C)C(=O)N[C@@H](CC(=O)O)C(=O)N[C@@H](CCC(N)=O)C(=O)N[C@@H](C)C(=O)N[C@@H](C)C(N)=O` [SEQ ID NO:5, Ac-YMRA-DQAA-NH2] (Ac-YMRADQAA-NH2), in assay [2], the Cleavability result is “slight” and the “cleavability by C-proteinase” value is recorded as “cleaved by C-proteinase”.

`[Zn+2]` [Zn^2+]: in assay [1], the “inhibitory at low concentrations” value is “inhibitory at low concentrations”.

On to phosphate, for which the “concentrations at which inhibitory” value in assay [1] is 1 to 10 mM.

As to `CC(C)C[C@H](NC(=O)[C@@H](O)[C@H](N)Cc1ccccc1)C(=O)O` [bestatin], the “inhibition … (in words)” value in assay [1] is “weak or no effect”.

Turning to `[Cd+2]` [Cd^2+], in assay [1], the “inhibitory at low concentrations” value is “inhibitory at low concentrations”.

In the case of `CC(C)CC(=O)N[C@H](C(=O)N[C@H](C(=O)N[C@@H](CC(C)C)[C@@H](O)CC(=O)N[C@@H](C)C(=O)N[C@@H](CC(C)C)[C@@H](O)CC(=O)O)C(C)C)C(C)C` [pepstatin A] (Isovaleryl-VV[Sta]A[Sta]-OH), in assay [1], the “inhibition … (in words)” value is given as “relatively strong inhibitors”.

On to `[Cu+2]` [Cu^2+], for which, in assay [1], the “inhibitory at low concentrations” value is “inhibitory at low concentrations”.

concanavalin A: in assay [1], the “inhibitory at low concentrations” value is recorded as “inhibitory at low concentrations”.

Consider `CC(C)C[C@@H](N)[C@H](O)C(=O)N[C@H](C(=O)N[C@H](C(=O)N[C@@H](CC(=O)O)C(=O)O)C(C)C)C(C)C` [amastatin], for which the “inhibition … (in words)” value in assay [1] is “weak or no effect”.

Take `CC(=O)N[C@@H](CC(C)C)C(=O)N[C@@H](CC(C)C)C(=O)N[C@H](C=O)CCCNC(=N)N` [leupeptin]: the “inhibition … (in words)” value in assay [1] is reported as “weak or no effect”.

For the molecule `CC(C)[C@H](NC(=O)[C@H](CCCNC(=N)N)NC(=O)N[C@@H](Cc1ccccc1)C(=O)O)C(=O)N[C@H](C=O)CCCNC(=N)N` [antipain] ({Phe-CO}-Arg-Val-Arg-aldehyde), the “inhibition … (in words)” value in assay [1] is listed as “weak or no effect”.

In the case of `[Cl-].[Na+]` [NaCl], the “activity relative to that observed with the standard assay concentration of 0.15M” value is 66% in assay [1] (0.2M NaCl), 38% in assay [1] (0.3M NaCl) and 25% in assay [1] (0.5M NaCl).

B1: ovostatin (protein, UniProt P20740 37-1473, looked up)
Ovostatin: KEPEPQYVLMVPAVLQSDSPSQVCLQFFNLNQTISVRVVLEYDTINTTIFEKNTTTSNGLQCLNFMIPPVTSVSLAFISFTAKGTTFDLKERRSVMIWNMESFVFVQTDKPIYKPGQSVMFRVVALDFNFKPVQEMYPLIAVQDPQNNRIFQWQNVTSEINIVQIEFPLTEEPILGNYKIIVTKKSGERTSHSFLVEEYVLPKFDVTVTAPGSLTVMDSELTVKICAVYTYGQPVEGKVQLSVCRDFDSYGRCKKSPVCQSFTKDLDTDGCLSHILSSKVFELNRIGYKRNLDVKAIVTEKEQVCNLTATQSISITQVMSSLQFENVDHHYRRGIPYFGQIKLVDKDNSPISNKVIQLFVNNKNTHNFTTDINGIAPFSIDTSKIFDPELSLKALYKTSDQCHSEGWIEPSYPDASLSVQRLYSWTSSFVRIEPLWKDMSCGQKRMITVYYILNTEGYEHINIVNFYYVGMAKGKIVLTGEIKVNIQADQNGTFMIPLVVNEKMAPALRLLVYMLHPAKELVADSVRFSIEKCFKNKVQLQFSEKQMLTTSNVSLVIEAAANSFCAVRAVDKSMLLLKSETELSAETIYNLHPIQDLQGYIFNGLNLEDDPQDPCVSSDDIFHKGLYYRPLTSGLGPDVYQFLRDMGMKFFTNSKIRQPTVCTRETVRPPSYFLNAGFTASTHHVKLSAEVAREERGKRHILETIREFFPETWIWDIILINSTGKASVSYTIPDTITEWKASAFCVEELAGFGMSVPATLTAFQPFFVDLTLPYSIIHGEDFLVRANVFNYLNHCIKINVLLLESLDYQAKLISPEDDGCVCAKIRKSYVWNIFPKGTGDVLFSITAETNDDEACEEEALRNIRIDYRDTQIRALLVEPEGIRREETQNFLICMKDDVISQDVAIDLPTNVVEGSPRPSFSVVGDIMGTAIQNVHQLLQMPFGNGEQNMVLFAPNIYVLDYLDKTRQLSEDVKSKTIGYLVSGYQKQLSYKHPDGSYSTFGIRDKEGNTWLTAFVYKSFAEASRFIYIDDNVQAQTLIWLATKQKTDGCFQSTGILVNNAMKGGVENELSLSAYITIALLEAGHSMSHTVIRNAFYCLETASEKNITDIYTQALVAYAFCLAGKAEICESFLRELQKSAKEVDGSKYWEQNQRSAPEKSHLLDHVQSTDVEITSYVLLALLYKPNRSQEDLTKASAIVQWIIRQQNSYGGFASMQDTVVALQALAAYGAATYNSVTQNVIKINSKNTFEKVFTVNNENRLLLQQTPLPQVPGKYSLTVNGTGCVLIQTALRYNIHLPEGAFGFSLSVQTSNASCPRDQPGKFDIVLISSYTGKRSSSNMVIIDVKMLSGFVPVKSSLDQLIDDHTVMQVEYKKNHVLLYLGNILQKRRKEVTFSVEQDFVVTHPKPAPVQIYDYYETEEYAVAEYMSLCRGVVEEMG
For B1, the “inhibition … (in words)” value in assay [1] is listed as “at least partially inhibit”.
